Tested on: patients with advanced solid tumours
Assay: Phase I toxicity of Carzelesin, 4-weekly 10 min IV infusion (NCI-CTC grading)
Format: in vivo, human
Conditions: for No. of courses with delayed recovery (no. of pts): delayed more than 3 days
Procedure: Carzelesin is a cyclopropylpyrroloindole analogue which acts as a DNA-sequence-specific alkylating agent. In this phase I study, Carzelesin was given as a 4-weekly 10 min IV infusion to 51 patients with advanced solid tumours. Patients received a median of two courses (range 1–5) at one of nine dose levels: 24, 48, 96, 130, 150, 170, 210, 250 and 300 μg m^−2. According to NCI-CTC criteria, non-haematological toxicities (grade 1/2) included fever, nausea and vomiting, mucositis and anorexia, none of which was clearly dose related. The dose-limiting toxicity was haematological and consisted mainly of neutropenia and to a lesser extent thrombocytopenia. From the dose level 150 μg m^−2, the haematological toxicity (particularly thrombocytopenia) was delayed in onset, prolonged and cumulative in some patients. In several courses, double WBC nadirs occurred. The maximum tolerated dose for a single course was 300 μg m^−2. From the dose level 170 μg m^−2, the intended dose intensity could not be delivered to most patients receiving > 2 courses owing to cumulative haematological toxicity. The dose level with the best dose intensity for multiple courses was 150 μg m^−2. The pharmacokinetics of Carzelesin and its metabolites (U-76,073; U-76,074) have been established in 31 patients during the first course of treatment using a HPLC method. […] The concentration of U-76,074 (active metabolite) extended above the lower limit of quantitation (1 ng ml^−1) for short periods of time and only at the higher dose levels. There was no relationship between neutropenia and the AUC of the prodrug Carzelesin, but the presence of detectable plasma levels of the active metabolite U-76,074 was usually associated with a substantial decrease in ANC values. © 1999 Cancer Research Campaign
Carzelesin (U-80,244, Figure 1A) is a cyclopropylpyrroloindole (CPI) prodrug analogue of CC-1065. […] CPI drugs are a class of compounds with unique DNA interactive properties. These agents fit into the minor groove region of DNA, and the CPI function in the molecule mediates a covalent binding to the N3 position of adenine in A-T rich regions, thus forming DNA adducts in a sequence selective fashion (Hurley et al, 1984; Reynolds et al, 1985). Three new CPIs have now been developed. […] Bizelesin differs from the classical CPI drugs in that it contains two chloromethyl functions, which are both converted (via intramolecular rearrangements) to the CPI alkyl- ating species that interact with DNA. Consequently, this agent is capable of forming DNA interstrand cross-links (Lee et al, 1991). […] Therefore, efforts were directed to modu- late the alkylation rate by the preparation of CPI prodrugs that would require chemical or enzymatic conversion. The activation of Carzelesin is a two-step reaction with hydrolysis of the phenyl- urethane substituent to form the intermediate compound U-76,073, followed by ring closure to form the active product U-76,074 (Figure 1B). […] This higher efficacy may be related to the pharmacologic features of the compound. […] Phase I study of Carzelesin (U-80,244) given (4-weekly) by intravenous bolus schedule A Awada1, CJA Punt2, MJ Piccart1, O Van Tellingen3, L Van Manen2, J Kerger1, Y Groot4, J Wanders4, J Verweij5 and DJTh Wagener2 1Institut Jules Bordet, Bd de Waterloo 125, 1000 Brussels, Belgium; 2University Hospital, Geert Grooteplein 8, Box 9101, 6500 HB Nijmegen, The Netherlands; 3The Netherlands Cancer Institute (Antoni van Leeuwenhoek Huis), Plesmanlaan 121, 1066 CX Amsterdam, The Netherlands; 4European Organization for Research and Treatment of Cancer - New Drug Development Office, PO Box 7057, Amsterdam, The Netherlands; 5Rotterdam Cancer Institute, Groene Hilledijk 301, 3075 EA Rotterdam, The Netherlands; on behalf of the EORTC Early Clinical Studies Group and EORTC NDDO Summary Carzelesin is a cyclopropylpyrroloindole analogue which acts as a DNA-sequence-specific alkylating agent. […]

`CCN(CC)c1ccc2cc(C(=O)Nc3ccc4[nH]c(C(=O)N5C[C@@H](CCl)c6c5cc(OC(=O)Nc5ccccc5)c5[nH]cc(C)c65)cc4c3)oc2c1` [Carzelesin] was tested, and the “dose level with the best dose intensity for multiple courses” value (4-weekly 10 min IV infusion) was 150 μg m^−2, the “maximum tolerated dose for a single course” value (4-weekly 10 min IV infusion) was 300 μg m^−2 and the “No. of reduced courses due to haematological toxicity” value (Table 2, dose level 24 μg m-2) was 0. The “No. of courses with delayed recovery (no. of pts)” value (“No. of courses … (no. of pts)” below) (Table 2, dose level 24 μg m-2) was 0, the “No. of reduced courses due to haematological toxicity” value (Table 2, dose level 48 μg m-2) was 0 and the “No. of courses … (no. of pts)” value (Table 2, dose level 48 μg m-2) was 0. The “No. of reduced courses due to haematological toxicity” value (Table 2, dose level 96 μg m-2) was 0, the “No. of courses … (no. of pts)” value (Table 2, dose level 96 μg m-2) was 0 and the “No. of reduced courses due to haematological toxicity” value (Table 2, dose level 130 μg m-2) was 0. For the same compound, the “No. of courses … (no. of pts)” value (Table 2, dose level 130 μg m-2) was 0, the “No. of courses … (no. of pts)” value (Table 2, dose level 150 μg m-2) was 3 (1) and the “No. of reduced courses due to haematological toxicity” value (Table 2, dose level 150 μg m-2, reduced to 130, 1 patient) was 3. For the same compound, the “No. of reduced courses due to haematological toxicity” value (Table 2, dose level 170 μg m-2) was 0, the “No. of courses … (no. of pts)” value (Table 2, dose level 170 μg m-2) was 4 (4) and the “No. of courses … (no. of pts)” value (Table 2, dose level 210 μg m-2) was 5 (5). For the same compound, the “No. of reduced courses due to haematological toxicity” value (Table 2, dose level 210 μg m-2, reduced to 96, 105, 150, 4 patients) was 6, the “No. of courses … (no. of pts)” value (Table 2, dose level 250 μg m-2) was 3 (3) and the “No. of reduced courses due to haematological toxicity” value (Table 2, dose level 250 μg m-2, reduced to 130, 170, 3 patients) was 6. The “No. of courses … (no. of pts)” value (Table 2, dose level 300 μg m-2) was 2 (2), the “No. of reduced courses due to haematological toxicity” value (Table 2, dose level 300 μg m-2, reduced to 150, 2 patients) was 2 and the “Neutropenia grade 3/4, No. of courses” value (Table 3, dose level 24 μg m-2) was 0. The “Neutropenia grade 3/4, No. of patients (worst grade per patient)” value (Table 3, dose level 24 μg m-2) was 0, the “Neutropenia grade 3/4, patients following the first course” value (Table 3, dose level 24 μg m-2) was 0 and the “No. of toxic patients following the first course” value (Table 3, dose level 24 μg m-2) was 0. For the same compound, the “Thrombocytopenia grade 3/4, No. of courses” value (Table 3, dose level 24 μg m-2) was 0, the “Thrombocytopenia grade 3/4, No. of patients (worst grade per patient)” value (Table 3, dose level 24 μg m-2) was 0 and the “Thrombocytopenia grade 3/4, patients following the first course” value (Table 3, dose level 24 μg m-2) was 0. The “No. of toxic patients/courses (grade 3/4 neutropenia and/or thrombocytopenia)” value (shortened to “No. of toxic patients/courses”) (Table 3, dose level 24 μg m-2, 4/6 evaluable patients/courses) was 0, the “Neutropenia grade 3/4, No. of courses” value (Table 3, dose level 48 μg m-2) was 0 and the “Neutropenia grade 3/4, No. of patients (worst grade per patient)” value (Table 3, dose level 48 μg m-2) was 0. The “Neutropenia grade 3/4, patients following the first course” value (Table 3, dose level 48 μg m-2) was 0, the “No. of toxic patients following the first course” value (Table 3, dose level 48 μg m-2) was 0 and the “Thrombocytopenia grade 3/4, No. of courses” value (Table 3, dose level 48 μg m-2) was 0. For the same compound, the “Thrombocytopenia grade 3/4, No. of patients (worst grade per patient)” value (Table 3, dose level 48 μg m-2) was 0, the “Thrombocytopenia grade 3/4, patients following the first course” value (Table 3, dose level 48 μg m-2) was 0 and the “No. of toxic patients/courses” value (Table 3, dose level 48 μg m-2, 3/7 evaluable patients/courses) was 0. For the same compound, the “Neutropenia grade 3/4, No. of courses” value (Table 3, dose level 96 μg m-2) was 0/1, the “Neutropenia grade 3/4, No. of patients (worst grade per patient)” value (Table 3, dose level 96 μg m-2) was 0/1 and the “Neutropenia grade 3/4, patients following the first course” value (Table 3, dose level 96 μg m-2) was 0/1. The “No. of toxic patients following the first course” value (Table 3, dose level 96 μg m-2) was 2, the “Thrombocytopenia grade 3/4, No. of courses” value (Table 3, dose level 96 μg m-2) was 1/0 and the “Thrombocytopenia grade 3/4, No. of patients (worst grade per patient)” value (Table 3, dose level 96 μg m-2) was 1/0. The “Thrombocytopenia grade 3/4, patients following the first course” value (Table 3, dose level 96 μg m-2) was 1/0, the “No. of toxic patients/courses” value (Table 3, dose level 96 μg m-2, 5/8 evaluable patients/courses) was 2/2 and the “Neutropenia grade 3/4, No. of courses” value (Table 3, dose level 130 μg m-2) was 2/0. For the same compound, the “Neutropenia grade 3/4, No. of patients (worst grade per patient)” value (Table 3, dose level 130 μg m-2) was 2/0, the “Neutropenia grade 3/4, patients following the first course” value (Table 3, dose level 130 μg m-2) was 0 and the “No. of toxic patients following the first course” value (Table 3, dose level 130 μg m-2) was 0. For the same compound, the “Thrombocytopenia grade 3/4, No. of courses” value (Table 3, dose level 130 μg m-2) was 2/1, the “Thrombocytopenia grade 3/4, No. of patients (worst grade per patient)” value (Table 3, dose level 130 μg m-2) was 2/1 and the “Thrombocytopenia grade 3/4, patients following the first course” value (Table 3, dose level 130 μg m-2) was 0. For the same compound, the “No. of toxic patients/courses” value (Table 3, dose level 130 μg m-2, 5/9 evaluable patients/courses) was 3/3, the “Neutropenia grade 3/4, No. of courses” value (Table 3, dose level 150 μg m-2) was 2/2 and the “Neutropenia grade 3/4, No. of patients (worst grade per patient)” value (Table 3, dose level 150 μg m-2) was 1/2. The “Neutropenia grade 3/4, patients following the first course” value (Table 3, dose level 150 μg m-2) was 0/1, the “No. of toxic patients following the first course” value (Table 3, dose level 150 μg m-2) was 2 and the “Thrombocytopenia grade 3/4, No. of courses” value (Table 3, dose level 150 μg m-2) was 1/1. The “Thrombocytopenia grade 3/4, No. of patients (worst grade per patient)” value (Table 3, dose level 150 μg m-2) was 1/1, the “Thrombocytopenia grade 3/4, patients following the first course” value (Table 3, dose level 150 μg m-2) was 1/1 and the “No. of toxic patients/courses” value (Table 3, dose level 150 μg m-2, 6/14 evaluable patients/courses) was 4/5. The “Neutropenia grade 3/4, No. of courses” value (Table 3, dose level 170 μg m-2) was 1/3, the “Neutropenia grade 3/4, No. of patients (worst grade per patient)” value (Table 3, dose level 170 μg m-2) was 1/3 and the “Neutropenia grade 3/4, patients following the first course” value (Table 3, dose level 170 μg m-2) was 0/2. The “No. of toxic patients following the first course” value (Table 3, dose level 170 μg m-2) was 4, the “Thrombocytopenia grade 3/4, No. of courses” value (Table 3, dose level 170 μg m-2) was 5/2 and the “Thrombocytopenia grade 3/4, No. of patients (worst grade per patient)” value (Table 3, dose level 170 μg m-2) was 3/2. The “Thrombocytopenia grade 3/4, patients following the first course” value (Table 3, dose level 170 μg m-2) was 3/0, the “No. of toxic patients/courses” value (Table 3, dose level 170 μg m-2, 9/16 evaluable patients/courses) was 6/8 and the “Neutropenia grade 3/4, No. of courses” value (Table 3, dose level 210 μg m-2) was 3/3. For the same compound, the “Neutropenia grade 3/4, No. of patients (worst grade per patient)” value (Table 3, dose level 210 μg m-2) was 2/3, the “Neutropenia grade 3/4, patients following the first course” value (Table 3, dose level 210 μg m-2) was 3/1 and the “No. of toxic patients following the first course” value (Table 3, dose level 210 μg m-2) was 4. The “Thrombocytopenia grade 3/4, No. of courses” value (Table 3, dose level 210 μg m-2) was 0/2, the “No. of toxic patients/courses” value (Table 3, dose level 210 μg m-2, 7/10 evaluable patients/courses) was 5/6 and the “Thrombocytopenia grade 3/4, No. of patients (worst grade per patient)” value (Table 3, dose level 210 μg m-2, one patient had pre-existing grade 1 thrombocytopenia) was 0/2.

Reference: publication PMC2362731, “Phase I study of Carzelesin (U-80,244) given (4-weekly) by intravenous bolus schedule” (British Journal of Cancer, 1999)
